Experimental data from patent US10526345B2, “Compounds as GPR119 agonists” (Mankind Pharma Ltd., priority 2016, dated 2020).
pEC50: −log10 of the molar value.

Molecular target: T1, hGPR119 (Homo sapiens, UniProt Q8TDV5)
T1 construct: expressed in transfected cells; host or cells: CHO
T1 sequence (Q8TDV5 1-335): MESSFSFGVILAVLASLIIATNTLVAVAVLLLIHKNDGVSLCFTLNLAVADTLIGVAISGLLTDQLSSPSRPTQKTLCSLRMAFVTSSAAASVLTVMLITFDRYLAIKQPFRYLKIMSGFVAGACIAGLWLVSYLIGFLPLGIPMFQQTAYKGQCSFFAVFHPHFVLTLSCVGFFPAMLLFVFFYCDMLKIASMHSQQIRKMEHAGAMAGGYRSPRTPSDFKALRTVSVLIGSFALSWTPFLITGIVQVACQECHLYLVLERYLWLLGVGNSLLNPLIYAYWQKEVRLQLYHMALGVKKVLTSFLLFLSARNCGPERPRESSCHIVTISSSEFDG
Experiment: In vitro cyclic AMP assay (Cisbio dynamic 2 HTRF kit) in CHO-hGPR119 cells
Format: cell-based
Conditions: 1 h, cAMP, compound at 1 μM, 60 min, read-out: Induction (% induction at 1 μM)
Protocol: cAMP measurements were done using Cisbio dynamic 2 HTRF kit according to the manufacturer's protocol. Briefly, CHO-hGPR119 cells were plated at a cell density of 5000 cells/well/5 μl into a white small volume 384 well plate. The final concentrations of IBMX and DMSO used were 1 mM and 0.5% respectively. Cells were treated with various concentrations of the test compound for 60 min at room temperature. Cells were lysed by buffer containing Anti-cAMP antibody and d2-cAMP reagents and incubated for 1 hour at room temperature. HTRF was measured at 337 nm excitation and emission wavelengths of 665 nm and 620 nm on a microplate reader (Flurostar, BMG Labtech). Graphpad prism software was utilized for EC50 determinations.

| SMILES | activation at 1 µM [%] |
| --- | --- |
| C[C@H](Oc1nc2ccc(-c3ccc(S(C)(=O)=O)nc3)nc2s1)C1CCN(c2nc(C(F)(F)F)no2)CC1 (stereo in doubt) [Compound 1145, 2-(1-(1-(3-(trifluoromethyl)-1,2,4-oxadiazol-5-yl)piperidin-4-yl)ethoxy)-5-(6-(methylsulfonyl)pyridin-3-yl)thiazolo[5,4-b]pyridine] | 65 |
| CC(C)c1noc(N2CCC(C(C)Oc3nc4ccc(-c5ccc(S(=O)(=O)C6CC6)nc5)nc4s3)CC2)n1 (stereo in doubt) [Compound 1164, 2-((S)-1-(1-(3-isopropyl-1,2,4-oxadiazol-5-yl)piperidin-4-yl)ethoxy)-5-(6-(cyclopropylsulfonyl)pyridin-3-yl)thiazolo[5,4-b]pyridine] | 72 |
| CC(C)c1noc(N2CCC(COc3nc4ccc(-c5ccc(S(C)(=O)=O)cc5)nc4s3)CC2)n1 [Compound 1006, 3-isopropyl-5-(4-(((5-(4-(methylsulfonyl)phenyl)thiazolo[5,4-b]pyridin-2-yl)oxy)methyl)piperidin-1-yl)-1,2,4-oxadiazole] | 31 |
| CCc1cnc(N2CCN(c3nc4ccc(-c5ccc(S(C)(=O)=O)cc5)nc4s3)CC2)nc1 [Compound 1008, 2-(4-(5-ethylpyrimidin-2-yl)piperazin-1-yl)-5-(4-(methylsulfonyl)phenyl)thiazolo[5,4-b]pyridine] | 3 |
| CS(=O)(=O)c1ccc(-c2nc3ccc(OCC4CCN(Cc5ccccc5)CC4)nc3s2)cc1 [Compound 1009, 5-((1-benzylpiperidin-4-yl)methoxy)-2-(4-(methyslulfonyl)phenyl)thiazolo[5,4-b]pyridine] | 5 |
| CCc1cnc(N2CCC(C(=O)Nc3nc4ccc(-c5ccc(S(C)(=O)=O)cc5)nc4s3)CC2)nc1 [Compound 1014, 1-(5-ethylpyrimidin-2-yl)-N-(5-(4-(methylsulfonyl)phenyl)thiazolo[5,4-b]pyridin-2-yl)piperidine-4-carboxamide] | 5 |
| CS(=O)(=O)c1ccc(-c2ccc3nc(C4=CCN(CCO)CC4)sc3n2)cc1 [Compound 1015, 2-(4-(5-(4-(methylsulfonyl)phenyl)thiazolo[5,4-b]pyridin-2-yl)-5,6-dihydropyridin-1(2H)-yl)ethanol] | 2 |
| CC(C)OC(=O)N1CCC(N(C)c2nc3ccc(-c4ccc(S(C)(=O)=O)cc4)nc3s2)CC1 [Compound 1016, isopropyl 4-(methyl(5-(4-(methylsulfonyl)phenyl)thiazolo[5,4-b]pyridin-2-yl)amino)piperidine-1-carboxylate] | 0 |
| CC(C)c1noc(C2CCN(c3nc4ccc(-c5ccc(C(=O)N(C)C)cc5)nc4s3)CC2)n1 [Compound 1022, 4-(2-(4-(3-isopropyl-1,2,4-oxadiazol-5-yl)piperidin-1-yl)thiazolo[5,4-b]pyridin-5-yl)-N,N-dimethylbenzamide] | 35 |
| CC(C)c1noc(C2CCN(c3nc4ccc(Nc5ccc(S(C)(=O)=O)c(F)c5)nc4s3)CC2)n1 [Compound 1025, N-(3-fluoro-4-(methylsulfonyl)phenyl)-2-(4-(3-isopropyl-1,2,4-oxadiazol-5-yl)piperidin-1-yl)thiazolo[5,4-b]pyridin-5-amine] | 12 |

Results, then the compound that gave them:

| activation at 1 µM [%] | SMILES |
| --- | --- |
| 22 | Cc1nc(S(C)(=O)=O)ccc1-c1ccc2nc(OC(C)C3CCN(c4nc(C(C)C)no4)CC3)sc2n1 (stereo in doubt) [Compound 1168, 2-((S)-1-(1-(3-isopropyl-1,2,4-oxadiazol-5-yl)piperidin-4-yl)ethoxy)-5-(2-methyl-6-(methylsulfonyl)pyridin-3-yl)thiazolo[5,4-b]pyridine] |
| 29 | CC(C)c1noc(C2CCN(c3ccc4nc(-c5ccc(S(C)(=O)=O)cc5)sc4n3)CC2)n1 [Compound 1003, 3-isopropyl-5-(1-(2-(4-(methylsulfonyl)phenyl)thiazolo[5,4-b]pyridin-5-yl)piperidin-4-yl)-1,2,4-oxadiazole] |
| 45 | CC(C)c1noc(C2CCN(c3nc4ccc(-c5ccc(S(C)(=O)=O)cc5)nc4s3)CC2)n1 [Compound 1004, 3-isopropyl-5-(1-(5-(4-(methylsulfonyl)phenyl)thiazolo[5,4-b]pyridin-2-yl)piperidin-4-yl)-1,2,4-oxadiazole] |
| 6 | CC(C)c1noc(N2CCC(Oc3nc4ccc(Oc5ccc(S(C)(=O)=O)cc5)nc4s3)CC2)n1 [Compound 1005, 3-isopropyl-5-(4-((5-(4-(methylsulfonyl)phenoxy)thiazolo[5,4-b]pyridin-2-yl)oxy)piperidin-1-yl)-1,2,4-oxadiazole] |
| 39 | CC(C)c1noc(N2CCC(Oc3nc4ccc(-c5ccc(S(C)(=O)=O)cc5)nc4s3)CC2)n1 [Compound 1007, 3-isopropyl-5-(4-((5-(4-(methylsulfonyl)phenyl)thiazolo[5,4-b]pyridin-2-yl)oxy)piperidin-1-yl)-1,2,4-oxadiazole] |
| 8 | CCc1cnc(N2CCN(c3nc4ccc(Oc5ccc(S(C)(=O)=O)cc5)nc4s3)CC2)nc1 [Compound 1010, 2-(4-(5-ethylpyrimidin-2-yl)piperazin-1-yl)-5-(4-(methylsulfonyl)phenoxy)thiazolo[5,4-b]pyridine] |
| 19 | CC(C)OC(=O)N1CC=C(c2nc3ccc(-c4ccc(S(C)(=O)=O)cc4)nc3s2)CC1 [Compound 1011, isopropyl 4-(5-(4-(methylsulfonyl)phenyl)thiazolo[5,4-b]pyridin-2-yl)-5,6-dihydropyridine-1(2H)-carboxylate] |
| 5 | CC(C)OC(=O)N1CCN(c2nc3ccc(-c4ccc(S(C)(=O)=O)cc4)nc3s2)CC1 [Compound 1012, isopropyl 4-(5-(4-(methylsulfonyl)phenyl)thiazolo[5,4-b]pyridin-2-yl)piperazine-1-carboxylate] |
| 11 | CC(C)OC(=O)N1CCC(c2nc3ccc(-c4ccc(S(C)(=O)=O)cc4)nc3s2)CC1 [Compound 1013, isopropyl 4-(5-(4-(methylsulfonyl)phenyl)thiazolo[5,4-b]pyridin-2-yl)piperidine-1-carboxylate] |
| 0 | CC(C)OC(=O)Oc1nc2ccc(-c3ccc(S(C)(=O)=O)cc3)nc2s1 [Compound 1019, isopropyl (5-(4-(methylsulfonyl)phenyl)thiazolo[5,4-b]pyridin-2-yl)carbonate] |
| 68 | CC(C)c1noc(N2CCC(C(C)Oc3nc4ccc(-c5ccc(S(C)(=O)=O)cc5)nc4s3)CC2)n1 (stereo not drawn) [Compound 1020, 3-isopropyl-5-(4-(1-((5-(4-(methylsulfonyl)phenyl)thiazolo[5,4-b]pyridin-2-yl)oxy)ethyl)piperidin-1-yl)-1,2,4-oxadiazole] |
| 13 | CC(C)c1noc(C2CCN(c3nc4ccc(-c5ccc(S(C)(=O)=O)cc5)nc4s3)C2)n1 (stereo not drawn) [Compound 1021, 3-isopropyl-5-(1-(5-(4-(methylsulfonyl)phenyl)thiazolo[5,4-b]pyridin-2-yl)pyrrolidin-3-yl)-1,2,4-oxadiazole] |
| 53 | COCCNC(=O)c1ccc(-c2ccc3nc(N4CCC(c5nc(C(C)C)no5)CC4)sc3n2)cc1 [Compound 1024, 4-(2-(4-(3-isopropyl-1,2,4-oxadiazol-5-yl)piperidin-1-yl)thiazolo[5,4-b]pyridin-5-yl)-N-(2-methoxyethyl)benzamide] |

Same assay, conditions: cAMP

| SMILES | pEC50 |
| --- | --- |
| CC(C)c1noc(N2CCC(C(C)Oc3nc4ccc(-c5ccc(S(C)(=O)=O)cc5)nc4s3)CC2)n1 (stereo not drawn) [Compound 1020, 3-isopropyl-5-(4-(1-((5-(4-(methylsulfonyl)phenyl)thiazolo[5,4-b]pyridin-2-yl)oxy)ethyl)piperidin-1-yl)-1,2,4-oxadiazole] | 6.30 to 7.00 |
